Laboratory results: US20100016401A1, “3-AZA-BICYCLO[3.1.0]HEXANE DERIVATIVES” (Actelion Phamaceuticals Ltd., priority 2006, published 2010)

How the values were obtained:
human orexin-2 receptor = target: T1, human orexin-2 receptor (Homo sapiens, UniProt O43614); test: Intracellular calcium measurements (FLIPR), orexin receptor antagonistic activity, OX2; format: cell-based; details: CHO cells expressing human orexin-2 receptor, 10 nM orexin-A as agonist
T1 construct: expressed in transfected cells; host or cells: CHO (Chinese hamster ovary) cells, grown under G418 selection
T1 sequence (O43614 1-444): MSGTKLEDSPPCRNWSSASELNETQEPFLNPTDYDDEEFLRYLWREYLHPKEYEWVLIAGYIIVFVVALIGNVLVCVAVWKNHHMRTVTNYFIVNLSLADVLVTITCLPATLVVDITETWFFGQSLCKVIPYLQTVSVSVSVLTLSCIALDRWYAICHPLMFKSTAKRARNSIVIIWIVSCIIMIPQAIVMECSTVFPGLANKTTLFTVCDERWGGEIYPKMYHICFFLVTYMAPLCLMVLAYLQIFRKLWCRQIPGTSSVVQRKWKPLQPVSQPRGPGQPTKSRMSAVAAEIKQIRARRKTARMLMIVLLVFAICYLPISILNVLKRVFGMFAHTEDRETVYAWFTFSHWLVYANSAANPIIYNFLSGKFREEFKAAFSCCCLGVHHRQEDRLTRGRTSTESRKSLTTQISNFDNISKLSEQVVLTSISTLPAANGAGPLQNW
Procedure: (§1) The orexin receptor antagonistic activity of the compounds of formula (I) is determined in accordance with the following experimental method.
(§2) Intracellular Calcium Measurements:
(§3) Chinese hamster ovary (CHO) cells expressing the human orexin-1 receptor and the human orexin-2 receptor, respectively, are grown in culture medium (Ham F-12 with L-Glutamine) containing 300 μg/ml G418, 100 U/ml penicillin, 100 μg/ml streptomycin and 10% inactivated fetal calf serum (FCS). The cells are seeded at 80,000 cells/well into 96-well black clear bottom sterile plates (Costar) which have been precoated with 1% gelatine in Hanks' Balanced Salt Solution (HBSS). All reagents are from Gibco BRL. The seeded plates are incubated overnight at 37° C. in 5% CO2.
(§4) Human orexin-A as an agonist is prepared as 1 mM stock solution in MeOH: water (1:1), diluted in HBSS containing 0.1% bovine serum albumin (BSA) and 2 mM HEPES for use in the assay at a final concentration of 10 nM.
(§5) Antagonists are prepared as 10 mM stock solution in DMSO, then diluted in 96-well plates, first in DMSO, then in HBSS containing 0.1% bovine serum albumin (BSA) and 2 mM HEPES.
(§6) On the day of the assay, 100 μl of loading medium (HBSS containing 1% FCS, 2 mM HEPES, 5 mM probenecid (Sigma) and 3 μM of the fluorescent calcium indicator fluo-3 AM (1 mM stock solution in DMSO with 10% pluronic acid) (Molecular Probes) is added to each well.
(§7) The 96-well plates are incubated for 60 min at 37° C. in 5% CO2. The loading solution is then aspirated and cells are washed 3 times with 200 μl HBSS containing 2.5 mM probenecid, 0.1% BSA, 2 mM HEPES. 100 μl of that same buffer is left in each well.
(§8) Within the Fluorescent Imaging Plate Reader (FLIPR, Molecular Devices), antagonists are added to the plate in a volume of 50 μl, incubated for 20 min and finally 100 μl of agonist is added. Fluorescence is measured for each well at 1 second intervals, and the height of each fluorescence peak is compared to the height of the fluorescence peak induced by 10 nM orexin-A with buffer in place of antagonist.

human orexin-1 receptor = target: T2, human orexin-1 receptor (Homo sapiens, UniProt O43613); test: Intracellular calcium measurements (FLIPR), orexin receptor antagonistic activity, OX1; format: cell-based; details: CHO cells expressing human orexin-1 receptor, 10 nM orexin-A as agonist
T2 construct: expressed in transfected cells; host or cells: CHO (Chinese hamster ovary) cells, grown under G418 selection
T2 sequence (O43613 1-425): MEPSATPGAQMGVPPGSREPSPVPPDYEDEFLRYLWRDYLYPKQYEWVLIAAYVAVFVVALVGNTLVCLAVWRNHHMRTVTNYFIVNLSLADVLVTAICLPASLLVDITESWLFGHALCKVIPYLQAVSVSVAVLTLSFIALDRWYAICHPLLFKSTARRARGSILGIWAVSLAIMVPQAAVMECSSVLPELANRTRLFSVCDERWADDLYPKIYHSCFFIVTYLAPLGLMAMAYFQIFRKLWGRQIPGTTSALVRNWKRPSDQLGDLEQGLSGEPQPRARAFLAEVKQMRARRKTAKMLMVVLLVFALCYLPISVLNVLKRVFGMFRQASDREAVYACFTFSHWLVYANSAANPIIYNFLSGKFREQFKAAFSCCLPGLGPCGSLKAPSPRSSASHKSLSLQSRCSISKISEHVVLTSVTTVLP
Procedure: as §1, §2, §3, §4, §5, §6, §7, §8

Compound | IC50 (human orexin-2 receptor) [nM] | IC50 (human orexin-1 receptor) [nM]
O=C(NC[C@@H]1[C@@H]2C[C@@H]2CN1C(=O)c1cccc2c1-c1ccccc1C2)c1cccc2occc12 (relative stereo) [Example 31, benzofuran-4-carboxylic acid [(1R*,2S*,5S*)-3-(9H-fluorene-4-carbonyl)-3-aza-bicyclo[3.1.0]hex-2-ylmethyl]-amide] | 51 | 240
Cc1cccc(-c2sc(C)nc2C(=O)N2C[C@H]3C[C@H]3[C@H]2CNC(=O)c2cccc3c2NC(=O)CO3)c1 (relative stereo) [Example 181, 3-Oxo-3,4-dihydro-2H-benzo[1,4]oxazine-5-carboxylic acid [(1R*,2S*,5S*)-3-(2-methyl-5-m-tolyl-thiazole-4-carbonyl)-3-aza-bicyclo[3.1.0]hex-2-ylmethyl]-amide] | 154 | 90
Cc1ccc(C(=O)N2C[C@H]3C[C@H]3[C@H]2CNC(=O)c2c3c(cc4c2OCC4)OCC3)c(-c2cccc(F)c2)c1 (relative stereo) [Compound 318] | 114 | 196
Cc1cccc(-c2sc(CCCO)nc2C(=O)N2C[C@H]3C[C@H]3[C@H]2CNC(=O)c2c(C)nc3sccn23)c1 (relative stereo) [Example 389, 6-Methyl-imidazo[2,1-b]thiazole-5-carboxylic acid {(1R*,2S*,5S*)-3-[2-(3-hydroxy-propyl)-5-m-tolyl-thiazole4-carbonyl]-3-aza-bicyclo[3.1.0]hex-2-ylmethyl}-amide] | 17 | 19
Cc1cccc(-c2sc(C)nc2C(=O)N2C[C@H]3C[C@H]3[C@H]2CNC(=O)c2sc(C)nc2C)c1 (relative stereo) [Example 82, 2,4-dimethyl-thiazole-5-carboxylic acid [(1R*,2S*,5S*)-3-(2-methyl-5-m-tolyl-thiazole-4-carbonyl)-3-aza-bicyclo[3.1.0]hex-2-ylmethyl]-amide] | 50 | 864
Cc1cccc(-c2sc(C)nc2C(=O)N2C[C@H]3C[C@H]3[C@H]2CNC(=O)c2cccc3c2OCCN3C)c1 (relative stereo) [Example 179, 4-Methyl-3,4-dihydro-2H-benzo[1,4]oxazine-8-carboxylic acid [(1R*,2S*,5S*)-3-(2-methyl-5-m-tolyl-thiazole-4-carbonyl)-3-aza-bicyclo[3.1.0]hex-2-ylmethyl]-amide] | 76 | 237
Cc1cccc(-c2sc(N)nc2C(=O)N2C[C@H]3C[C@H]3[C@H]2CNC(=O)c2sc3nccn3c2C)c1 (relative stereo) [Example 274, 3-Methyl-imidazo[2,1-b]thiazole-2-carboxylic acid [(1R*,2S*,5S*)-3-(2-amino-5-m-tolyl-thiazole-4-carbonyl)-3-aza-bicyclo[3.1.0]hex-2-ylmethyl]-amide] | 87 | 31
Cc1cccc(-c2sc(C)nc2C(=O)N2C[C@H]3C[C@H]3[C@H]2CNC(=O)c2ccc(F)cc2Cl)c1 (relative stereo) [Example 141, 2-Chloro-4-fluoro-N-[(1R*,2S*,5S*)-3-(2-methyl-5-m-tolyl-thiazole-4-carbonyl)-3-aza-bicyclo[3.1.0]hex-2-ylmethyl]-benzamide] | 14 | 76
Cc1nc(C(=O)N2C[C@H]3C[C@H]3[C@H]2CNC(=O)c2cnc3sccn23)c(-c2cccc(F)c2)s1 (relative stereo) [Example 214, Imidazo[2,1-b]thiazole-5-carboxylic acid {(1R*,2S*,5S*)-3-[5-(3-fluoro-phenyl)-2-methyl-thiazole-4-carbonyl]-3-aza-bicyclo[3.1.0]hex-2-ylmethyl}-amide] | 17 | 37
Cc1cccc(-c2sc(C)nc2C(=O)N2C[C@H]3C[C@H]3[C@H]2CNC(=O)c2ccc(C)c(C(F)(F)F)c2)c1 (relative stereo) [Example 146, 4-Methyl-N-[(1R*,2S*,5S*)-3-(2-methyl-5-m-tolyl-thiazole-4-carbonyl)-3-aza-bicyclo[3.1.0]hex-2-ylmethyl]-3-trifluoromethyl-benzamide] | 55 | 54
Nc1nc(-c2ccccc2C(=O)N2C[C@H]3C[C@H]3[C@H]2CNC(=O)c2cccc3occc23)cs1 (relative stereo) [Example 30, benzofuran-4-carboxylic acid {(1R*,2S*,5S*)-3-[2-(2-amino-thiazol-4-yl)benzoyl]-3-aza-bicyclo[3.1.0]hex-2-ylmethyl}-amide] | 32 | 1210
O=C(NC[C@@H]1[C@@H]2C[C@@H]2CN1C(=O)c1ccccc1-c1ccc(Cl)cc1)c1cccc2occc12 (relative stereo) [Example 42, benzofuran-4-carboxylic acid [(1R*,2S*,5S*)-3-(4′-chloro-biphenyl-2-carbonyl)-3-aza-bicyclo[3.1.0]hex-2-ylmethyl]-amide] | 50 | 237
Cc1nc(C(=O)N2C[C@H]3C[C@H]3[C@H]2CNC(=O)c2cnc3ccccn23)c(-c2cccc(Cl)c2)s1 (relative stereo) [Example 203, Imidazo[1,2-a]pyridine-3-carboxylic acid {(1R*,2S*,5S*)-3-[5-(3-chloro-phenyl)-2-methyl-thiazole-4-carbonyl]-3-aza-bicyclo[3.1.0]hex-2-ylmethyl}-amide] | 92 | 42
Cc1cccc(-c2sc(C)nc2C(=O)N2C[C@H]3C[C@H]3[C@H]2CNC(=O)c2cccc(C(F)(F)F)c2)c1 (relative stereo) [Example 125, N-[(1R*,2S*,5S*)-3-(2-Methyl-5-m-tolyl-thiazole-4-carbonyl)-3-aza-bicyclo[3.1.0]hex-2-ylmethyl]-3-trifluoromethyl-benzamide] | 102 | 98
Cc1cccc(-c2sc(C)nc2C(=O)N2C[C@H]3C[C@H]3[C@H]2CNC(=O)c2cccc(C)c2Cl)c1 (relative stereo) [Example 143, 2-Chloro-3-methyl-N-[(1R*,2S*,5S*)-3-(2-methyl-5-m-tolyl-thiazole-4-carbonyl)-3-aza-bicyclo[3.1.0]hex-2-ylmethyl]-benzamide] | 17 | 507
Cc1cccc(-c2sc(C)nc2C(=O)N2C[C@H]3C[C@H]3[C@H]2CNC(=O)c2cnc(CC(C)C)c(C)c2)c1 (relative stereo) [Example 100, 6-isobutyl-5-methyl-N-[(1R*,2S*,5S*)-3-(2-methyl-5-m-tolyl-thiazole-4-carbonyl)-3-aza-bicyclo[3.1.0]hex-2-ylmethyl]-nicotinamide] | 80 | 1300
Cc1nc(C(=O)N2C[C@H]3C[C@H]3[C@H]2CNC(=O)c2cccc3c2OCCO3)c(-c2cccc(F)c2)s1 (relative stereo) [Example 256, 2,3-Dihydro-benzo[1,4]dioxine-5-carboxylic acid {(1R*,2S*,5S*)-3-[5-(3-fluoro-phenyl)-2-methyl-thiazole-4-carbonyl]-3-aza-bicyclo[3.1.0]hex-2-ylmethyl}-amide] | 14 | 111
O=C(c1ccccc1-c1ccccc1)N1C[C@H]2C[C@H]2[C@H]1CNc1ncc(Br)cn1 (relative stereo) [Example 64, biphenyl-2-yl-{(1R*,2S*,5S*)-2-[(5-bromo-pyrimidin-2-ylamino)methyl]-3-aza-bicyclo[3.1.0]hex-3-yl}-methanone] | 242 | 162
